pIC50: −log10 of the molar value.
What was measured:
ZIKV MR766 NS1 = assay: microbe, parasite or virus in culture; type: cell-based, Zika virus; conditions: Zika virus, HEK293, 48 h, read-out: NS1-IC50
Method: A one-step NS1 TR-FRET (Time-resolved fluorescence resonance energy transfer) assay for a screen of anti-ZIKV compounds was carried out. Human embryonic kidney cell line HEK293 cells were seeded into 384-well plates and infected with ZIKV MR766 at a MOI of 0.5 for 2 days. The FRET assay was performed with two clones of anti-NS1 antibody (ab) differentially labelled with donor and acceptor fluorophores.

[1] = test system: ZIKV production from SNB-19 cells; assay: Infectious ZIKV production from SNB-19 cells, focus-forming unit assay on Vero cells; type: cell-based, Zika virus
Method: FIGS. 2A-1, 2A-2, 2B-1, 2B-2, 2C-1, 2C-2, 2D-1, 2D-2, 2D-3, 2E-1, 2E-2, and 2F. […] Screening of select compounds for antiviral activity against ZIKV infection was carried out. Glioblastoma SNB-19 cells were treated with indicated compound at 10×AC50 (determined in the primary caspase screen) for 1 hour prior to inoculation with FSS-13025 (at MOI=1). Cells were harvested 24 hours post infection and analyzed by Western blot for ZIKV-NS1 or GAPDH (FIGS. 2A-1 and 2A-2). Titration of PHA-690509 on glioblastoma cells for anti-ZIKV activity. Three strains of virus (FSS-13025, PRVABC59, and MR766; MOI=1) were tested. Shown are sample western blot images (FIG. 2B-1) and ImageJ quantification (FIG. 2B-2). Values represent mean±s.d. (n=3; ***P<0.001; One-way ANOVA). Titration of Emricasan on SNB-19 cells for anti-ZIKV activity was conducted similarly (FIGS. 2C-1 and 2C-2). Values represent mean±s.d. […] Sample western blot (FIG. 2D-2) and ImageJ quantification (FIG. 2D-3) are shown for infection with the PRVABC59 strain (MOI=1). Results for additional strains are shown in FIGS. 6A-F. Values represent mean±s.d. […] The concentration of NS1 in the medium of infected SNB-19 cells collected 24 hours post-infection was quantified by a ZIKV-NS1 ELISA kit (FIGS. 2E-1 and 2E-2). […] Cell culture supernatant was collected 24 hours after infection, and infectious virions were quantified for focus-forming units (FFU) using Vero cells. […] Curves represent best fits for calculating IC50 values, and the insets report the calculated IC50 value for each compound.
FIGS. 18A, 18B, 18C-1, 18C-2, 18D, 18E, 18F, 18G-1, and 18G-2. […] 24 hours post infection, supernatants from SNB-19 cells were titrated onto naïve vero cells plated in a monolayer in 96-well plates for infectious focus-forming unit assay as previously described and focus forming units quantified. […] Immunofluorescence (IF) staining (FIG. 18C-1) and quantification (FIG. 18C-2) of ZIKV positive SNB-19 cells following infection with one of three ZIKV strains and treatment with emetine at 0.01, 0.1, or 1 μM. […]
FIG. 21. […] IC50's calculated using graphpad PRISM software. […]

[2] = oral, BID, ×4 days, cited from earlier work

CC[C@H]1CN2CCc3cc(OC)c(OC)cc3[C@@H]2C[C@@H]1C[C@H]1NCCc2cc(OC)c(OC)cc21 [Emetine]
pIC50 (ZIKV MR766 NS1): 6.94
pIC50 ([1]; Zika virus, SNB-19 cells, each of three ZIKV strains, read-out: IC50 of infectious ZIKV production): ≥ 8.00

C[C@H](NC(=O)C(=O)Nc1ccccc1C(C)(C)C)C(=O)N[C@@H](CC(=O)O)C(=O)COc1c(F)c(F)cc(F)c1F [Emricasan]
maximum (Cmax) concentration in human blood [2]: 2360 ng/mL
Cmax ([2]; read-out: maximum (Cmax) concentration in human blood, value in brackets): 4.15 µM

O=C(Nc1ccc([N+](=O)[O-])cc1Cl)c1cc(Cl)ccc1O [Niclosamide]
potency on inhibition of ZIKV replication [1]: submicromolar range
